Earlier results as cited in publication PMC7113793 (Antiviral Research, 2017).

Columns and labels:
[1] = target: Citrullus vulgaris urease; settings: read-out: Kis
aldehyde dehydrogenase = settings: in vivo
[2] = target: Giardia lamblia carbamate kinase

| SMILES | Ki [1] [µM] | enzyme inhibition as compared to the activity of the control (aldehyde dehydrogenase) [%] | IC50 [2] [µM] | loss of PL^pro activity (PL^pro) [%] |
| --- | --- | --- | --- | --- |
| CCN(CC)C(=S)SSC(=S)N(CC)CC [disulfiram] | 67.6 | 77 | 0.6 to 1.4 | – |
| O=C(O)CN(CCN(CC(=O)O)CC(=O)O)CC(=O)O [EDTA] | – | – | – | 62 |
